Where two headings read alike, the source gives them in different places.
How the values were obtained:
NF-κB = NF-κB assay: THP1-NF-κB-LUC cells, LPS-stimulated secreted luciferase; type: cell-based; conditions: THP1-NF-κB-LUC cells, read-out: IC50 (NF-κB assay)
Procedure, shortened: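 THP1-NF-κB-LUC cells (25k/well) were pretreated with compounds for 2 h, then stimulated with LPS (10 ng/mL) for 18 h. Secreted luciferase was measured and normalized to vehicle, and IC50 was fitted from the concentration series.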

TNF release = assay: TNF assay: TNF release from LPS-stimulated human PBMCs (TNF ELISA); type: cell-based; conditions: PBMC, read-out: IC50 (TNF assay)
Procedure, shortened: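 Human PBMCs at 10k/well pretreated with compound dilutions 2 h, then stimulated with LPS (10 ng/mL) for 18 h. TNF in supernatants quantified by ELISA; IC50 for inhibition of TNF release fitted from concentration–response.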

[1] = LPS-stimulated human PBMCs, TNF ELISA
[2] = compounds 2 hours before LPS (10 ng/mL) for 18 hours, secreted luciferase
[3] = human PBMCs, compounds 2 hours before LPS (10 ng/ml) for 18 hours, supernatant TNF ELISA

Row | SMILES | IC50 (NF-κB; LPS-stimulated) [nM] | IC50 (TNF release; [1]) [nM] | IC50 (NF-κB; [2]) [nM] | IC50 (TNF release; [3]) [nM]
1 | O=S(=O)(c1cccc(F)c1)c1nc(-c2ccccc2)oc1[S+]([O-])C1CCCCC1 (stereo not drawn) [BC19327] | 1000 to 10000 | 1000 to 10000 | – | –
2 | O=S(=O)(c1cccc(F)c1)c1nc(-c2ccccc2)oc1S(=O)(=O)C1CCCCC1 [BC19328] | < 100 | 100 to 1000 | – | –
3 | CS(=O)(=O)c1oc(-c2ccccc2)nc1S(=O)(=O)c1ccc(Cl)cc1 [BC19329] | < 100 | < 100 | – | –
4 | O=S(=O)(CC1CC1)c1oc(-c2ccccc2)nc1S(=O)(=O)c1ccc(Cl)cc1 [BC19330] | 100 to 1000 | 100 to 1000 | – | –
5 | COCCS(=O)(=O)c1oc(-c2ccccc2)nc1S(=O)(=O)c1ccc(Cl)cc1 [BC19331] | < 100 | < 100 | – | –
6 | CCC[S+]([O-])c1oc(-c2ccc(F)cc2)nc1S(=O)(=O)c1ccc(Cl)cc1 (stereo not drawn) [BC19332] | 100 to 1000 | < 100 | – | –
7 | COCCS(=O)(=O)c1oc(-c2ccc(F)cc2)nc1S(=O)(=O)c1ccc(Cl)cc1 [BC19333] | < 100 | < 100 | – | –
8 | CC(C)S(=O)(=O)c1sc(-c2ccccc2)nc1S(=O)(=O)c1ccc(F)c(F)c1 [BC19334] | > 10000 | 1000 to 10000 | – | –
9 | Cc1ccc(Cl)cc1NC(=O)CS(=O)(=O)c1[nH]c(-c2ccccc2)nc1S(=O)(=O)c1ccccc1 [BC19335] | > 10000 | > 10000 | – | –
10 | COc1cccc(-c2nc(S(=O)(=O)c3ccc(Cl)cc3)c(S(=O)(=O)C(C)C)[nH]2)c1 [BC19336] | > 10000 | > 10000 | – | –
11 | COCC[S+]([O-])c1[nH]c(-c2cccc(OC)c2)nc1S(=O)(=O)c1ccc(Cl)cc1 (stereo not drawn) [BC19337] | > 10000 | > 10000 | – | –
12 | C[S+]([O-])c1[nH]nc(N)c1S(=O)(=O)c1ccccc1 (stereo not drawn) [BC19338] | > 10000 | > 10000 | – | –
13 | CS(=O)(=O)c1[nH]nc(N)c1S(=O)(=O)c1ccccc1 [BC19339] | > 10000 | > 10000 | – | –
14 | Cc1nc2c(S(=O)(=O)c3ccccc3)c([S+](C)[O-])nn2c(C)c1C (stereo not drawn) [BC19340] | > 10000 | > 10000 | – | –
15 | Cc1cc(O)n2nc([S+](C)[O-])c(S(=O)(=O)c3ccccc3)c2n1 (stereo not drawn) [BC19341] | > 10000 | > 10000 | – | –
16 | C[S+]([O-])c1oc(-c2cccc(F)c2)nc1S(=O)(=O)c1ccc(Cl)cc1 (stereo not drawn) [BC19342] | < 100 | < 100 | – | –
17 | CS(=O)(=O)c1oc(-c2cccc(F)c2)nc1S(=O)(=O)c1ccc(Cl)cc1 [BC19343] | 1000 to 10000 | < 100 | – | –

Row | SMILES | IC50 (NF-κB; LPS-stimulated) [nM] | IC50 (TNF release; [1]) [nM] | IC50 (NF-κB; [2]) [nM] | IC50 (TNF release; [3]) [nM]
18 | CCC[S+]([O-])c1oc(-c2cccc(F)c2)nc1S(=O)(=O)c1ccc(Cl)cc1 (stereo not drawn) [BC19344] | 100 to 1000 | 100 to 1000 | – | –
19 | CCCS(=O)(=O)c1oc(-c2cccc(F)c2)nc1S(=O)(=O)c1ccc(Cl)cc1 [BC19345] | 100 to 1000 | 100 to 1000 | – | –
20 | CC(C)[S+]([O-])c1oc(-c2cccc(F)c2)nc1S(=O)(=O)c1ccc(Cl)cc1 (stereo not drawn) [BC19346] | < 100 | < 100 | – | –
21 | CC(C)C[S+]([O-])c1oc(-c2cccc(F)c2)nc1S(=O)(=O)c1ccc(Cl)cc1 (stereo not drawn) [BC19347] | < 100 | < 100 | – | –
22 | CC(C)CS(=O)(=O)c1oc(-c2cccc(F)c2)nc1S(=O)(=O)c1ccc(Cl)cc1 [BC19348] | < 100 | 100 to 1000 | – | –
23 | O=S(=O)(c1ccc(Cl)cc1)c1nc(-c2cccc(F)c2)oc1[S+]([O-])CC1CC1 (stereo not drawn) [BC19349] | 100 to 1000 | < 100 | – | –
24 | O=S(=O)(CC1CC1)c1oc(-c2cccc(F)c2)nc1S(=O)(=O)c1ccc(Cl)cc1 [BC19350] | 1000 to 10000 | 1000 to 10000 | – | –
25 | COCC[S+]([O-])c1oc(-c2cccc(F)c2)nc1S(=O)(=O)c1ccc(Cl)cc1 (stereo not drawn) [BC19351] | 100 to 1000 | < 100 | – | –
26 | COCCS(=O)(=O)c1oc(-c2cccc(F)c2)nc1S(=O)(=O)c1ccc(Cl)cc1 [BC19352] | 100 to 1000 | < 100 | – | –
27 | O=S(=O)(c1ccc(Cl)cc1)c1nc(-c2cccc(F)c2)oc1[S+]([O-])C1CCCCC1 (stereo not drawn) [BC19353] | 100 to 1000 | 100 to 1000 | – | –
28 | CC1Oc2cc(S(=O)(=O)Nc3ccc(OC(F)(F)F)cc3)c(Cl)cc2NC1=O (stereo not drawn) [BC19354] | – | – | < 100 | > 10000
29 | CCOc1ccc(NS(=O)(=O)c2cc(Cl)cc3c2OC(C)C(=O)N3)cc1 (stereo not drawn) [BC19355] | – | – | < 100 | > 10000
30 | CC1Oc2cc(S(=O)(=O)NCc3ccc(F)cc3F)c(Br)cc2NC1=O (stereo not drawn) [BC19356] | – | – | 1000 to 10000 | > 10000
31 | CC1Oc2cc(S(=O)(=O)NCc3ccc(OC(F)(F)F)cc3)c(Br)cc2NC1=O (stereo not drawn) [BC19357] | – | – | > 10000 | > 10000
32 | CC1Oc2cc(S(=O)(=O)NCc3ccc(C(F)(F)F)cc3)c(Br)cc2NC1=O (stereo not drawn) [BC19358] | – | – | > 10000 | > 10000
33 | CC1Oc2cc(S(=O)(=O)NCCc3ccc(OC(F)(F)F)cc3)c(Br)cc2NC1=O (stereo not drawn) [BC19359] | – | – | > 10000 | > 10000

From patent US12606528B2, “Methods and materials for inhibiting NF-kB activity” (University of Pittsburgh - Of the Commonwealth System of …, priority 2019, dated 2026)
